Test results: ChEMBL document CHEMBL5252509, “In depth analysis of kinase cross screening data to identify chemical starting points for inhibition of the Nek family of kinases” (Medchemcomm, 2018)

Target: T1, Serine/threonine-protein kinase Nek10 (Homo sapiens) (UniProt Q6ZWH5)
T1 sequence (whole entry): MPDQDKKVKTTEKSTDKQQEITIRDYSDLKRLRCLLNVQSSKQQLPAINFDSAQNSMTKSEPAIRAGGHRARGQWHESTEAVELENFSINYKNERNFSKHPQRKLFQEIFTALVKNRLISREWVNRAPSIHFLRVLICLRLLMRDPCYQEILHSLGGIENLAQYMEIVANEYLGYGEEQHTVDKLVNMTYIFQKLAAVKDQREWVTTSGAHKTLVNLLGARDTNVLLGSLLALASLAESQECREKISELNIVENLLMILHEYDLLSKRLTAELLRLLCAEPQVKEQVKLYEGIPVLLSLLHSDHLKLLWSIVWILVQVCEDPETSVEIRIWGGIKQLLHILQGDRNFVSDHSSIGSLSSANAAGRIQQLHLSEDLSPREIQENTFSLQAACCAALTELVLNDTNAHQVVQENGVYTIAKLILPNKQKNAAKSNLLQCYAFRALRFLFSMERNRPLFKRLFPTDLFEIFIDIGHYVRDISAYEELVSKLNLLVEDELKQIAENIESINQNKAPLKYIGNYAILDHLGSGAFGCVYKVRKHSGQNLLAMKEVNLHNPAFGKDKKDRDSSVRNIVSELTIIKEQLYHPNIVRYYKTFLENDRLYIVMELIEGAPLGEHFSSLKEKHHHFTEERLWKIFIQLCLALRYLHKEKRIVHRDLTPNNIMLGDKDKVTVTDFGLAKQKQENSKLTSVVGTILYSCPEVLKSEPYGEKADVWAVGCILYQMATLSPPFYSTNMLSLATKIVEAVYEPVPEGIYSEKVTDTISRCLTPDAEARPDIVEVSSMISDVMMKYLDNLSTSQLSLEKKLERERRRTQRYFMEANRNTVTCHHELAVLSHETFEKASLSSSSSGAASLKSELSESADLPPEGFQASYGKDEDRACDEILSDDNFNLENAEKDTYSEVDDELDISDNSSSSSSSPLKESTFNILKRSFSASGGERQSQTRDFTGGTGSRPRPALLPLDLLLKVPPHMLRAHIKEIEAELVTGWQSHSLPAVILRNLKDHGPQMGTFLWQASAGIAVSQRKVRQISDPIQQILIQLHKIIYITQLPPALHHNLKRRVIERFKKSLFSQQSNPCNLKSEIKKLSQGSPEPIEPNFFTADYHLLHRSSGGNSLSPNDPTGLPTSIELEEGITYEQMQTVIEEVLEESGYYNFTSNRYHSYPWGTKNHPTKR
Assay: Inhibition of NEK10 (unknown origin) at 10 uM relative to control

% control: 0%
Structure (SMILES): O=C1NC(=O)/C(=C/c2ccc3nccc(-c4ccncc4)c3c2)S1
